Source: patent US20200071667A1, “COMPOSITION COMPRISING GLYCYRRHIZIN FOR INDUCING DIFFERENTIATION INTO MYELOID-DERIVED SUPPRESSOR CELL FROM MYELOID CELL” (Konkuk University Glocal Industry-Academic Collabo, priority 2018, published 2020)

Columns and labels:
[1] = test system: myeloid cells obtained from blood, the heart, and the lungs; test: Flow cytometric analysis of MDSC ratio in myeloid cells of mice with LPS-induced sepsis (in vivo); set-up: species or system C57BL/6 mice
Experimental: (§1) Animal experiments were performed according to the National Institutes of Health (NIH) guidelines for the care and use of experimental animals. This study was conducted with the approval of the Konkuk University Animal Care and Use Committee (KU16062). 8-week-old male C57BL/6 mice without specific pathogens were used, and as needed, experimental groups were divided into three groups: a control, an LPS group, and an LPS+GR group.
Specifically, 0.1 ml of phosphate buffered saline (PBS; Gibco, Grand Island, N.Y., USA) was injected intraperitoneally (i.p.) into mice of the control, and 12 hours after the injection, 0.1 ml of PBS was intraperitoneally injected again into each mouse. 1 μg of LPS (Escherichia coli serotype 0111:B4, Sigma-Aldrich, St. Louis, Mo., USA) dissolved in 0.1 ml of PBS was injected intraperitoneally (i.p.) into mice of the LPS group to induce sepsis, and 12 hours after sepsis induction, 0.1 ml of PBS was intraperitoneally injected into each mouse. […]
The myeloid cells obtained from blood, the heart, or the lungs were washed with fluorescence-activated cell sorting (FACS) buffer (PBS containing 1% bovine serum albumin and 0.01% NaN3). […]

[2] = test system: heart tissues and lung tissues; test: Histopathologic analysis and injury score of heart and lung tissues in LPS-induced sepsis; format: in vivo, C57BL/6 mice; details: 5-point scale 0-4; LPS 1 μg i.p.; GR 100 mg/kg i.p. twice
Experimental: as §1
Specifically, 0.1 ml of phosphate buffered saline (PBS; Gibco, Grand Island, N.Y., USA) was injected intraperitoneally (i.p.) into mice of the control, and 12 hours after the injection, 0.1 ml of PBS was intraperitoneally injected again into each mouse. […]
Specifically, the heart tissues and lung tissues of mice of each experimental group prepared in Example 1 were fixed in a 4% paraformaldehyde solution (Biosesang, Seongnam, Korea) at 25° C. overnight and inserted into paraffin blocks. […] Heart (including left and right ventricles) or lung injury was scored based on Table 2 below. Each score was determined by a 5-point scale such as 0: minimal injury, 1: minor injury, 2: moderate injury, 3: severe injury, and 4: maximum injury.

[3] = test system: Toll-like receptor 4 (TLR4); test: Western blotting of TLR4 in heart or lung tissues; format: in vivo, C57BL/6 mice
Experimental: Specifically, 0.1 ml of phosphate buffered saline (PBS; Gibco, Grand Island, N.Y., USA) was injected intraperitoneally (i.p.) into mice of the control, and 12 hours after the injection, 0.1 ml of PBS was intraperitoneally injected again into each mouse. 1 μg of LPS (Escherichia coli serotype 0111:B4, Sigma-Aldrich, St. Louis, Mo., USA) dissolved in 0.1 ml of PBS was injected intraperitoneally (i.p.) into mice of the LPS group to induce sepsis, and 12 hours after sepsis induction, 0.1 ml of PBS was intraperitoneally injected into each mouse. 1 μg of LPS and 100 mg/kg of ammonium glycyrrhizinate (GR; Abcam Inc., Cambridge, UK) dissolved in 0.1 ml of PBS were injected intraperitoneally (i.p.) into mice of the LPS+GR group, and 12 hours after the injection, 100 mg/kg of ammonium glycyrrhizinate dissolved in 0.1 ml of PBS was intraperitoneally injected into each mouse.
It was determined whether TLR4 expression levels were inhibited when mice with sepsis induced by LPS were treated with glycyrrhizin. The expression level of Toll-like receptor 4 (TLR4) was confirmed using immunohistochemistry and western blot analysis.
Western blotting was performed to confirm the intensity of TLR4 staining. […] Band intensity was quantified using Luminescent Image Analyzer LAS-3000 (FUJIFILM Medical Systems, Hanover Park, Ill., USA). The density of each band was analyzed using NIH Image J software.

Substance: lipopolysaccharide [LPS]
- ratio of MDSCs to myeloid cells (MDSCs/myeloid cells) ([1]; myeloid cells from blood, heart or lungs, LPS 1 μg i.p., GR 100 mg/kg i.p. twice): significantly reduced compared to the control
- blood ratio of MDSCs to CD11+GR1 myeloid cells ([1]; preliminary study using 6 mice with LPS-induced sepsis, blood): 18.4±3.13%
- injury score, heart tissues [2]: 3.3±0.8
- injury score, lung tissues [2]: 3.5±0.5
- TLR4 intensity by western blotting ([3]; heart): 403.9±29.3
- TLR4 intensity by western blotting ([3]; lungs): 350.7±21.3
